These results are taken from PubChem BioAssay (NCI).

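48-hour exposure; five concentrations; linearly interpolated endpoints. The concentration for 50% growth inhibition is given as GI50. Definition used: TGI = concentration required for complete inhibition of growth.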 Bounds are passed on as bounds.

Some test systems named below: HL-60(TB) leukemia; A549 NSCLC; SF-295 CNS; TK-10 renal; NCI-H23 lung; PC-3 prostate; EKVX NSCLC; DU-145 prostate; SK-MEL-5 melanoma; HOP-92 NSCLC.
Assay in all cases: growth of human tumour cells (NCI), 48 h

Regarding `CN(COC(=O)C(C)(C)C)c1nc(N(C)COC(=O)C(C)(C)C)nc(N(C)COC(=O)C(C)(C)C)n1`, the TGI is 63.6 µM in the test on HL-60(TB) leukemia; > 100 µM in the test with A549 NSCLC; > 100 µM with SF-295 CNS; > 100 µM with TK-10 renal; > 100 µM in the test on NCI-H23 lung; > 100 µM in the test on PC-3 prostate. Further, the TGI in the test on EKVX NSCLC, with DU-145 prostate and in the test on SK-MEL-5 melanoma was > 100 µM each time.

As to `O=NN(CC(=O)NNc1ccccc1)CC(=O)NNc1ccccc1`, the GI50 with HL-60(TB) leukemia was 0.534 µM; in the test with A549 NSCLC, > 23.1 µM; in the test with SF-295 CNS, 2.34 µM; in the test with TK-10 renal, > 100 µM; with NCI-H23 lung, > 100 µM; with PC-3 prostate it was 5.64 µM. For the same compound, the GI50 in the test with HOP-92 NSCLC was > 100 µM; in the test with DU-145 prostate, > 100 µM; with SK-MEL-5 melanoma, 8.67 µM. In addition, the TGI is > 100 µM in the test with HL-60(TB) leukemia; > 100 µM in the test with A549 NSCLC; 7.81 µM with SF-295 CNS; > 100 µM in the test on TK-10 renal; > 100 µM in the test on NCI-H23 lung; > 100 µM with PC-3 prostate. The TGI in the test on HOP-92 NSCLC, in the test with DU-145 prostate and in the test with SK-MEL-5 melanoma was > 100 µM in each case.

Turning to `Cc1ccc(-c2csc3ncnc(Nc4cccc(O)c4)c23)cc1`, the GI50 was 18.2 µM with HL-60(TB) leukemia; 41.8 µM with A549 NSCLC; 2.13 µM with SF-295 CNS; 22.6 µM with NCI-H23 lung; 16.3 µM in the test with PC-3 prostate; 14.3 µM in the test on HOP-92 NSCLC. For the same compound, the values for the GI50 with EKVX NSCLC, in the test with DU-145 prostate and in the test on SK-MEL-5 melanoma were 37.8 µM, 42.1 µM and 22.8 µM, respectively. Moreover, the TGI stood at 51.5 µM in the test with HL-60(TB) leukemia; 92.5 µM in the test with A549 NSCLC; 24.7 µM in the test with SF-295 CNS; 46.5 µM with NCI-H23 lung; 37.1 µM in the test with PC-3 prostate; 35.9 µM in the test with HOP-92 NSCLC. For the same compound, the TGI is 98 µM in the test with EKVX NSCLC, > 100 µM in the test on DU-145 prostate and 51.2 µM in the test on SK-MEL-5 melanoma.

In the case of `C[C@H]1CCC/C=C/[C@@H]2C[C@H](O)C[C@H]2[C@H](O)C(O)C(O)C(=O)O1` (stereo partly drawn), the GI50 in the test on HL-60(TB) leukemia is 0.251 µM; with A549 NSCLC, 4.54 µM; in the test with SF-295 CNS it was 4.66 µM; in the test with TK-10 renal, 6.42 µM; in the test with NCI-H23 lung, 2.23 µM; in the test with PC-3 prostate, 3.44 µM. Also, the values for the GI50 in the test with EKVX NSCLC, in the test with DU-145 prostate and with SK-MEL-5 melanoma were 4.24 µM, 6.69 µM and 0.362 µM, respectively. Further, the TGI with HL-60(TB) leukemia is 2.31 µM; with A549 NSCLC, > 100 µM; in the test on SF-295 CNS, > 100 µM; in the test on TK-10 renal it was > 100 µM; in the test with NCI-H23 lung, > 100 µM; in the test on PC-3 prostate, > 29.8 µM. For the same compound, the TGI in the test with EKVX NSCLC and with DU-145 prostate was > 100 µM throughout.

Take `CN(C)Cc1nsc(N(C)C)n1`: the TGI with A549 NSCLC, in the test on SF-295 CNS, with TK-10 renal, in the test on NCI-H23 lung, in the test on PC-3 prostate and in the test with HOP-92 NSCLC was > 100 µM throughout. In addition, the TGI in the test on EKVX NSCLC, with DU-145 prostate and with SK-MEL-5 melanoma was > 100 µM in each case.

Consider `CCn1cnc(C[C@H](NC(=O)[C@@H](NC(=O)Nc2cc(C(F)(F)F)cc(C(F)(F)F)c2)C(C)(C)C)C(=O)OC)c1`, for which the GI50 with HL-60(TB) leukemia, with A549 NSCLC, with SF-295 CNS, with TK-10 renal, with NCI-H23 lung and in the test with PC-3 prostate was > 10 µM throughout. Moreover, the GI50 with HOP-92 NSCLC, in the test on DU-145 prostate and with SK-MEL-5 melanoma was > 10 µM each time. The TGI in the test with HL-60(TB) leukemia, in the test with A549 NSCLC, with SF-295 CNS, with TK-10 renal, in the test on NCI-H23 lung and with PC-3 prostate was > 10 µM in each case. The TGI with HOP-92 NSCLC, in the test on DU-145 prostate and in the test on SK-MEL-5 melanoma was > 10 µM each time.

For the compound `COc1ccc(/C(=N/O)c2cc(F)c(F)c(OC)c2F)cc1O`, the GI50 with A549 NSCLC was 1.06 µM; in the test on SF-295 CNS it was 0.392 µM; in the test with TK-10 renal, 17.9 µM; in the test with NCI-H23 lung, 1.9 µM; with PC-3 prostate it was 0.565 µM; in the test with HOP-92 NSCLC it was 18.9 µM. Further, the values for the GI50 with EKVX NSCLC, with DU-145 prostate and in the test with SK-MEL-5 melanoma were 0.714 µM, 1.88 µM and 0.599 µM, respectively. For the same compound, the TGI is > 100 µM with A549 NSCLC; 18.2 µM in the test with SF-295 CNS; > 100 µM in the test on TK-10 renal; > 100 µM in the test on NCI-H23 lung; > 100 µM in the test with PC-3 prostate; > 100 µM in the test with HOP-92 NSCLC. Also, the figures for the TGI with EKVX NSCLC, in the test with DU-145 prostate and in the test with SK-MEL-5 melanoma were > 100 µM, > 100 µM and 17.3 µM, respectively.

As for `Cc1ncc2c(n1)CCC1=C2OS(=O)(=O)CC1N(C)C` (stereo not drawn), the TGI in the test on HL-60(TB) leukemia, in the test on A549 NSCLC, in the test on TK-10 renal, in the test with NCI-H23 lung, in the test on PC-3 prostate and in the test on EKVX NSCLC was > 100 µM throughout. Further, the TGI with DU-145 prostate and in the test on SK-MEL-5 melanoma was > 100 µM throughout.

Consider `COc1cccc(C2=C(c3cn(C)c4c(C)cccc34)C(=O)NC2=O)c1`, for which the GI50 is > 25 µM in the test on HL-60(TB) leukemia; > 23.2 µM in the test with A549 NSCLC; 17.4 µM in the test with SF-295 CNS; > 25 µM in the test with TK-10 renal; > 25 µM in the test with NCI-H23 lung; > 18.3 µM in the test on PC-3 prostate. Further, the GI50 was > 25 µM in the test on HOP-92 NSCLC, > 25 µM in the test with DU-145 prostate and 21.5 µM in the test with SK-MEL-5 melanoma. Further, the TGI with HL-60(TB) leukemia, in the test with A549 NSCLC, with SF-295 CNS, with TK-10 renal, with NCI-H23 lung and with PC-3 prostate was > 25 µM throughout. For the same compound, the TGI in the test on HOP-92 NSCLC, in the test on DU-145 prostate and in the test on SK-MEL-5 melanoma was > 25 µM each time.
